Source: patent US6403590B1, “Use of certain isoquinolinesulfonyl compounds for the treatment of glaucoma and ocular ischemia” (Alcon Laboratories, Inc., priority 1995, dated 2002)

Columns and labels:
[1] = tested on: laser-induced hypertensive primates; assay: IOP in laser-induced ocular hypertensive monkeys (lasered MIOP), topical dosing; format: in vivo, monkey; conditions: for MIOP IOP % Reduction, 1 hour: 1 hour post-dose; for MIOP IOP % Reduction, 3 hours: 3 hours post-dose; for MIOP IOP % Reduction, 6 hours: 6 hours post-dose
Method: Monkey intraocular pressure (MIOP) were obtained from laser-induced hypertensive primates in the manner described in Examples 1 and 4 below at 1, 3, and 6 hours post-dose.
(§1) The hydrochloride salt of Compound II, also known as fasudil hydrochloride or just fasudil, was topically administered to eyes of ocular normotensive and hypertensive monkeys, New Zealand Albino (NZA) and Dutch Belted (DB) rabbits.

[2] = tested on: Bulbar Conjunctiva (conjunctival hyperemia); assay: Guinea pig conjunctival hyperemia model; format: in vivo; conditions: cumulative incidence; percent of eyes scoring +2 or more; scored 1, 2, 3, 4 hours after instillation
Method: A guinea pig model was used to assess the potential of the compounds to cause conjunctival hyperemia as measured by vasodilation. Compound was instilled and hyperemia was scored at 1, 2, 3, and 4 hours following dosing. Reported above is the cumulative incidence of hyperemia over the 4 hour period. Incidence of hyperemia (Bulbar Conjunctiva) was calculated as the percent of eyes scoring +2 or more, according to the following graded scale: 0 Normal appearance of vessels at limbus and rectus muscle 1 Enlargement of vessels normally visible at limbus and rectus muscle 2 Branching of vessels at limbus, additional vessels visible 3 Additional vessels visible in open bulbar conjunctival areas 4 Diffuse redness in open bulbar conjunctival areas

[3] = tested on: New Zealand Albino (NZA) rabbit; assay: IOP in New Zealand Albino rabbits, topical dosing; format: in vivo; conditions: four hour dose response
Method: as §1
A dose study similar to that described in Example 2 was conducted with the NZA rabbit. Compound II (hydrochloride) was administered in a topical ocular fashion in doses of 50, 125 and 250 μg.
Other isoquinolinesulfonamides were topically administered to the eyes of New Zealand Albino (NZA) rabbits.
All drugs were administered to eyes in a topical manner at a dose=500 μg (2×25 μl). All compounds were formulated in phosphate buffered saline containing 0.01% benzalkonium chloride, and in all instances N=7.

[4] = tested on: ocular normotensive monkey; assay: IOP in ocular normotensive monkeys, topical dosing; format: in vivo, cynomolgus monkey
Method: as §1
The effect of repeated doses of Compound II on the magnitude and duration of IOP reduction was evaluated in ocular normotensive monkeys.

[5] = tested on: Dutch Belted (DB) rabbit; assay: IOP in Dutch Belted rabbits, topical dosing; format: in vivo
Method: as §1
Compound II (hydrochloride) was administered topically to the eyes of Dutch Belted (DB) rabbits in doses of 75 and 150 μg.

SMILES | MIOP IOP % Reduction, 1 hour ([1]; dose 500 μg) [%] | MIOP IOP % Reduction, 3 hours ([1]; dose 500 μg) [%] | MIOP IOP % Reduction, 6 hours ([1]; dose 500 μg) [%] | Guinea Pig Hyperemia (Cumulative over 4 hours) [2] [%] | IOP lowering effect ([1]; laser-induced hypertensive primates, compared with the other compounds of Example E) | MIOP IOP % Reduction, 1 hour ([1]; dose 1000 μg) [%] | MIOP IOP % Reduction, 3 hours ([1]; dose 1000 μg) [%] | MIOP IOP % Reduction, 6 hours ([1]; dose 1000 μg) [%] | IOP lowering [3] | IOP reduction after repeated doses ([4]; ocular normotensive monkeys, total of 900 μg in three doses, ten minutes apart) | IOP lowering ([4]; ocular normotensive primates, topical) | IOP lowering ([1]; ocular hypertensive (laser-induced) primates, topical) | IOP lowering [5]
O=S(=O)(c1cccc2c(Cl)nccc12)N1CCNCC1 [1-(1-chloro-5-isoquinolinesulfonyl)-piperazine] | 7.9 | 11.9 | 9.4 | 10 | – | – | – | – | – | – | – | – | –
CC1CN(S(=O)(=O)c2cccc3cnccc23)C(C)CN1 (stereo not shown) [D, 1-(5-isoquinolinesulfonyl)-2,5-dimethylpiperazine] | 36.3 | 32.8 | 19.3 | 20 | markedly superior IOP lowering effect | – | – | – | – | – | – | – | –
CC1CN(S(=O)(=O)c2cccc3cnccc23)CCN1 (stereo not shown) [Example H-7, 1-(5-isoquinolinesulfonyl)-3-methylpiperazine] | – | – | – | 0 | – | 30.9 | 20.9 | 11.6 | – | – | – | – | –
O=S(=O)(c1cccc2cnccc12)N1CCCNCC1 [Fasudil, hexahydro-1-(5-isoquinolinylsulfonyl)-1H-1,4-diazepine] | 21.9 | 14.6 | 23.4 | 75 | – | – | – | – | IOP was marketedly lowered below base line | significant IOP reduction | effectively lowered IOP | effectively lowered IOP | lowered IOP in the DB rabbit; however, the reduction in IOP was not sustained
